“Also recorded” adds a separate entry of the source.
How the values were obtained:
JAK2 (a.a. 828-1132) = JAK2 (a.a. 828-1132) (Homo sapiens (Human), UniProt O60674); experiment: In vitro JAK kinase assay (HTRF), JAK2 relative to JAK1; format: biochemical; details: IC50 ratio, 1 mM ATP
Procedure: The catalytic activity of JAK1, JAK2 or JAK3 was assayed by measuring the phosphorylation of a biotinylated peptide. The phosphorylated peptide was detected by homogenous time resolved fluorescence (HTRF). […] Reactions are carried out at room temperature for 1 hour and then stopped with 20 μL 45 mM EDTA, 300 nM SA-APC, 6 nM Eu-Py20 in assay buffer (Perkin Elmer, Boston, Mass.). Binding to the Europium labeled antibody takes place for 40 minutes and HTRF signal was measured on a Fusion plate reader (Perkin Elmer, Boston, Mass.).

[1] = Fecal concentration and excretion after oral sustained release dose; format: in vivo, human
Procedure: The method used for analyzing Compound 1 in human feces is a qualified method. The human fecal samples are collected in 1:1 homogenate at the clinical site [1 part of water (mL): 1 part of faces(g)]. Prior to sample analysis, additional water is added to the sample homogenate to achieve the final ratio of feces to water at 1:19 as calibration standard and QC samples. The final homogenates are processed and analyzed with calibration standards and QC samples. For human homogenate analysis, briefly, 100 μL of the feces homogenate (blanks, QC and study samples) is placed in a test tube. After an aliquot of 20 μL of internal standard is added and mixed, an aliquot of 200 μL of 0.1 M NaHCO3 is added and vortexed. Then 2 mL of MtBE is added and the samples are vortexed. After centrifugation, MtBE layer is transferred to a clean test tube. The samples were then dried under nitrogen at approximately 40° C. An aliquot of 1 mL of reconstitution solution (acetonitrile:water, 50:50, v/v) is then added to each sample and vortexed. Then 10 μL of the sample was diluted with 3 mL reconstitution solution in a clean test tube. The sample is transferred to an autosampler vial and 10 μL is injected into an LC-MS/MS for analysis. The LC-MS/MS analysis is carried out with an AB Sciex API 4000 or API 4000 QTrap mass spectrometer coupled with an HPLC pump and an autosampler. The chromatographic separation is achieved on a Agilent Eclipse Plus C8 50×4.6 mm, 5 μm HPLC column, with gradient elution. The mass spectrometer is operated in positive ESI mode. MRM transition is m/z 554.3→186.2 for Compound 1 and m/z 558.4→190.2 for the internal standard. Peak-area integrations are performed using the Analyst software and concentrations are calculated in Watson LIMS. Concentrations of human feces homogenates are calculated using 8 concentration levels ranging from 1 μg/g to 300 μg/g (1.8 μM to 542 μM) with weighted linear regression, according to the following formula: y=ax+b(weighting factor=1/x^2)
where x=Compound 1 concentration in μg/g in human feces homogenates, y=Peak-area ratio, a=Slope, and b=Intercept.
(§1) Methods: Compound 1 concentrations in plasma and feces (colonic surrogate) were determined following a single sustained release 25 mg oral dose (see, e.g., Example B, 25 mg SR composition). Compound 1 concentrations in plasma following a single 100 mg dose were also determined in a separate study (see, e.g., Example C for measuring concentrations of Compound 1 in plasma). Ex vivo study: Colon tissue samples from healthy and UC subjects (2/group) were mounted on a vertical Ussing diffusion chamber. [^14C]Compound 1 was applied to the apical side of the chamber at 100 and 1000 nM and incubated for 1 h. Samples were collected from the donor and receiver sides for determination of Compound 1 concentration. The colonic tissue was snap frozen for quantitative autoradiography.

[2] = Ex vivo colon permeation study (Ussing diffusion chamber / tube), LSC; format: in vitro ADME, human; details: healthy and UC colon, 100 and 1000 nM, 1 h; LLOQ 2 times background (21 dpm)
Procedure: as §1
A small piece of two colon samples from two healthy and UC subjects (total eight samples) were provided by Analytical Biological Services Inc. (Wilmington, Del.) and stored at −70° C. until use.
Dose formulations, i.e., 100 nM and 1000 nM, were prepared on the day of the experiment for all tissues in the study. [^14C]Compound 1 (1.06 mg) was dissolved in dimethyl sulfoxide (DMSO; 1.514 mL) to produce a 1 mM stock solution (0.7 mg/mL). […]
[^14C]Compound 1 concentrations in both donor and receiver sides were analyzed by LSC. The lower limit of quantitation (LLOQ) was determined as 2 times the background (21 dpm).

[3] = test system: TNBS-induced colitis in BALB/c mice; experiment: TNBS-induced colitis model in mice; format: in vivo, mouse
From the text: Preclinical models of IBD were established in BALB/c mice by intracolonic injection of 2,4,6-trinitrobenzene sulfonic acid (TNBS) or 4-ethoxymethylene-2-phenyl-2-oxazolin-5-one (oxazolone) to trigger an immune response, as described below. Body weight, stool consistency and fecal blood were scored. Additional readouts included colon weight to length ratio and histological evaluation. Blood was collected for pharmacokinetic analysis.
Male BALB/c mice were purchased (Charles River Laboratories) and distal colitis was induced by intracolonic instillation of TNBS (2,4,6-trinitrobenzenesulfonic acid solution, 1 mg in 0.1 mL 50% ethanol). Compound 1 treatment was administered at 30 mg/kg by oral gavage (PO) or 3 mg/kg by intracolonic injection (IC) twice daily (BID). Diarrhea was quantified on a 0-3 rating scale, (0=normal; 1=soft but still formed; 2=very soft; 3=diarrhea) on days 3 to 5 post TNBS sensitization.

JAK2 (a.a. 828-1132), sequence (O60674 828-1132): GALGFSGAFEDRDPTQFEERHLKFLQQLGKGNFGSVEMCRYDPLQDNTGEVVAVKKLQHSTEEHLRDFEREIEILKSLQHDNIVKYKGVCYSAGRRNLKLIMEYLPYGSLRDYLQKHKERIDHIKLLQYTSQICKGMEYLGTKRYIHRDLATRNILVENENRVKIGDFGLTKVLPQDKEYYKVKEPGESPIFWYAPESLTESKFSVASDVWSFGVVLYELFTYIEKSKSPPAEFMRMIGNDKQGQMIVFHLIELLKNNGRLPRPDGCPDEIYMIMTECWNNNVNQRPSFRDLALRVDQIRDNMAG

With N#CCC1(n2cc(-c3ncnc4[nH]ccc34)cn2)CN(C2CCN(C(=O)c3ccnc(C(F)(F)F)c3F)CC2)C1 [Compound 1, {1-{1-[3-Fluoro-2-(trifluoromethyl)isonicotinoyl]piperidin-4-yl}-3-[4-(7H-pyrrolo[2,3-d]pyrimidin-4-yl)-1H-pyrazol-1-yl]azetidin-3-yl}acetonitrile] the JAK2/JAK1 (JAK2 (a.a. 828-1132)) was greater than 10, the “administered dose excreted intact as parent compound in the feces” value ([1]; humans, oral) was roughly 30% and the “Maximal fecal concentration, geometric mean” value ([1]; single 25 mg SR dose, feces 0-24 hours) was 85.5 nM. The “Maximal fecal concentration, Mean” value ([1]; single 25 mg SR dose, feces 0-24 hours, SD 41.4 nM) was 93.4 nM, the “patients with maximum fecal concentrations exceeding the in vitro IC50 for JAK1 inhibition (58 nM)” value ([1]; single 25 mg dose) was “eight of twelve” and the “dose eliminated as unchanged Compound 1 in the feces” value ([1]; sustained release formulation) was 27.1%. The “radioactivity / concentration in basolateral side (receiver compartment)” value [2] was “no Compound 1 related radioactivity was detected from the receiver side”, the fecal blood score ([3]; 3 mg/kg IC BID) was “significant (p<0.05) decrease in fecal blood score” and the “total colonic macroscopic damage” value ([3]; 3 mg/kg IC BID) was “ameliorated total colonic macroscopic damage”. The “disease severity / disease recovery” value ([3]; 3 mg/kg intracolonic BID) was “significantly reduced disease severity; also recorded: highly efficacious in enhancing disease recovery; also recorded: more rapidly induced recovery; also recorded: highly efficacious in TNBS-induced colitis”, the “disease severity / disease score recovery” value ([3]; 30 mg/kg PO BID, vs vehicle) was “significantly reduced disease severity; also recorded: accelerated disease score recovery” and the stool consistency ([3]; 30 mg/kg PO or 3 mg/kg intracolonic, twice daily, vs control) was “significantly (p<0.05) improved stool consistency”.

Source: patent US11596632B2, “JAK1 pathway inhibitors for the treatment of gastrointestinal disease” (Incyte Corporation, priority 2018, dated 2023)
